Data taken from article PMC11386433 (Journal of Medicinal Chemistry, 2024).
Where two headings read alike, the source gives them in different places.

What was measured:
[1] = molecular target: T1, μOR (SNAP-opioid receptor) (Homo sapiens, UniProt P35372); experiment: HTRF saturation binding of fluorescent ligand to SNAP-opioid receptors on HEK293T cells
T1 construct: host or cells: HEK293T

δOR [2] = molecular target: T2, δOR (Homo sapiens, UniProt P41143); experiment: cell-based; assay type: cell-based; parameters: Gαqi gift from The J. David Gladstone Institutes; host or cells: HEK293T; conditions: for Emax: HEK-293T, read-out: Emax (agonist properties); for response in agonist mode: IP-One assay
T2 sequence (P41143 whole entry): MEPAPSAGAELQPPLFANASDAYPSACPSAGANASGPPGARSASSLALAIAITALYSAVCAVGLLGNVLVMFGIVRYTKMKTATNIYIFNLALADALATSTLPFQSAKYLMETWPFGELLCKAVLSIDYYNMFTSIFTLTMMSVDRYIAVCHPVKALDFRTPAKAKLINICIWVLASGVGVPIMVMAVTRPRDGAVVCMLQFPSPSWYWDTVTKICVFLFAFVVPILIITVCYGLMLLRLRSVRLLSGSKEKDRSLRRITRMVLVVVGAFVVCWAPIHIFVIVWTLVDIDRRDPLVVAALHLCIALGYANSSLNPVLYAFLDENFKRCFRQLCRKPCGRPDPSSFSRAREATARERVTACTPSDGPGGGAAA

δOR [3] = molecular target: T2, δOR; experiment: cell-based; assay type: cell-based; parameters: host or cells: HEK293T stably expressing EA-β-arrestin-2; conditions: for Emax: HEK-293T, read-out: Emax (agonist properties); for response in agonist mode: β-arrestin-2 recruitment
human μOR = molecular target: T3, human μOR (Homo sapiens, UniProt P35372); experiment: biochemical; assay type: binding
T3 construct: host or cells: HEK293T (membrane preparation)
T3 sequence (P35372 whole entry): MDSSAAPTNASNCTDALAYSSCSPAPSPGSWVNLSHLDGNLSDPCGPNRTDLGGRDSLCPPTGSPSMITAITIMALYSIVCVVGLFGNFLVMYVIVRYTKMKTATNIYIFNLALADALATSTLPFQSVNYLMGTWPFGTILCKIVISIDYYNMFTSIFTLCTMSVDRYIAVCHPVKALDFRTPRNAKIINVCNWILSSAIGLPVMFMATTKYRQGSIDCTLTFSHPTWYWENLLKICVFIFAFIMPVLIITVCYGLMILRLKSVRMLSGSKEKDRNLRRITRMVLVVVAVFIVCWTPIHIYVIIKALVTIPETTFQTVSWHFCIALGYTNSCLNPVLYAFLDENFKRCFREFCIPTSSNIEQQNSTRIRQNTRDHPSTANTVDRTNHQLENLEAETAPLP

human κOR = molecular target: T4, human κOR (Homo sapiens, UniProt P41145); experiment: biochemical; assay type: binding
T4 construct: host or cells: HEK293T (membrane preparation)
T4 sequence (P41145 whole entry): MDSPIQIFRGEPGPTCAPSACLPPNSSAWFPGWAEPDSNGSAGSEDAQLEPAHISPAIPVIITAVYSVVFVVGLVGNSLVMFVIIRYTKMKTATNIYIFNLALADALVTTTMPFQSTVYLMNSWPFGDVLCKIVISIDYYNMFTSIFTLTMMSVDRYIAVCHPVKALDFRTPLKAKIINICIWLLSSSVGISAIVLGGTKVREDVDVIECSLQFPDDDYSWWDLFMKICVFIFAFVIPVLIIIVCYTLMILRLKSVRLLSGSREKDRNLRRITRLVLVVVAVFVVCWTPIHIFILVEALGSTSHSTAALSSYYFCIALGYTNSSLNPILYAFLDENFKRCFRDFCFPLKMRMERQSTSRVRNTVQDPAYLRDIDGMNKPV

δOR [4] = molecular target: T2, δOR; assay type: binding; parameters: host or cells: CHO-K1; conditions: labeled with 1 μM
[5] = molecular target: T5, κOR (SNAP-opioid receptor) (Homo sapiens, UniProt P41145); experiment: HTRF saturation binding of fluorescent ligand to SNAP-opioid receptors on HEK293T cells
T5 construct: host or cells: HEK293T
T5 sequence (P41145 whole entry): as above

[6] = molecular target: T6, δOR (SNAP-opioid receptor) (Homo sapiens, UniProt P41143); experiment: as above; conditions: HTRF saturation curve, 1 h room temperature, nonspecific binding with naloxone 100 μM
T6 construct: host or cells: HEK293T
T6 sequence (P41143 whole entry): as the sequence (P41143 whole entry) above

wild-type human δOR = molecular target: T7, wild-type human δOR (Homo sapiens, UniProt P41143); experiment: Single-molecule microscopy of CHO cells transfected with wild-type δOR; assay type: cell-based
T7 construct: host or cells: CHO-K1
T7 sequence (P41143 whole entry): as above

[7] = HTRF saturation curve, value of high uncertainty, saturation not reached
[8] = selectivity ratio of HTRF Kd values, high uncertainty

T1 sequence (P35372 whole entry): as the sequence (P35372 whole entry) above

| SMILES | Kd [1, 7] | μ/δ [1, 8] | IC50 (δOR [2]) | Emax (δOR [2]) | response in agonist mode (δOR [2]) | IC50 (δOR [3]) | Emax (δOR [3]) | response in agonist mode (δOR [3]) | Ki (human μOR) | μ/δ (human μOR) | Ki (human κOR) | κ/δ (human κOR) | wash resistance (δOR [4]; after 20 min of medium wash out) | Kd [5, 7] | κ/δ [5, 8] | Kd [6] | time after labeling at which labeled δOR molecules could still be observed diffusing on the plasma membrane (wild-type human δOR) | wash resistance (δOR [4]; after 15 min of medium wash out) |
| --- | --- | --- | --- | --- | --- | --- | --- | --- | --- | --- | --- | --- | --- | --- | --- | --- | --- | --- |
| CN1/C(=C/C=C/C=C/C2=[N+](CCCCCC(=O)NCC(=O)NCC(=O)NCC(=O)NCC(=O)Nc3cccc4c5c([nH]c34)[C@@H]3Oc4c(O)ccc6c4[C@@]34CCN(CC3CC3)[C@H](C6)[C@]4(O)C5)c3ccc(S(=O)(=O)[O-])cc3C2(C)C)C(C)(C)c2cc(S(=O)(=O)O)ccc21 [6-Cy5, 1-(1-(((4bS,8R,8aS,14bR)-7-(cyclopropylmethyl)-1,8a-dihydroxy-5,6,7,8,8a,9,14,14b-octahydro-4,8-methanobenzofuro[2,3-a]pyrido[4,3-b]carbazol-13-yl)amino)-1,4,7,10,13-pentaoxo-3,6,9,12-tetraazaoctadecan-18-yl)-3,3-dimethyl-2-((1E,3E)-5-((E)-1,3,3-trimethyl-5-sulfoindolin-2-ylidene)penta-1,3-dien-1-yl)-3H-indol-1-ium-5-sulfonate] | 0.215 ± 0.262 µM | 120 | 0.054 µM | < 5% | did not elicit a response | 0.033 µM | < 5% | did not elicit a response | 0.1 µM | 83 | 0.078 µM | 65 | 93 ± 1% | 0.226 ± 0.131 µM | 126 | 0.0018 ± 0.0008 µM |  |  |
| CN1/C(=C/C=C/C2=[N+](CCCCCC(=O)NCC(=O)NCC(=O)NCC(=O)NCC(=O)Nc3cccc4c5c([nH]c34)[C@@H]3Oc4c(O)ccc6c4[C@@]34CCN(CC3CC3)[C@H](C6)[C@]4(O)C5)c3ccc(S(=O)(=O)[O-])cc3C2(C)C)C(C)(C)c2cc(S(=O)(=O)O)ccc21 [6-Cy3, 1-(1-(((4bS,8R,8aS,14bR)-7-(cyclopropylmethyl)-1,8a-dihydroxy-5,6,7,8,8a,9,14,14b-octahydro-4,8-methanobenzofuro[2,3-a]pyrido[4,3-b]carbazol-13-yl)amino)-1,4,7,10,13-pentaoxo-3,6,9,12-tetraazaoctadecan-18-yl)-3,3-dimethyl-2-((E)-3-((E)-1,3,3-trimethyl-5-sulfoindolin-2-ylidene)prop-1-en-1-yl)-3H-indol-1-ium-5-sulfonate] |  |  | 0.038 µM | < 10% | did not elicit a response | 0.047 µM | < 5% | did not elicit a response | 0.37 µM | 220 | 0.33 µM | 190 |  |  |  |  | 2 to 3 h | 69 ± 1% |
